The source of these data is patent US6902744B1, “Exendin agonist formulations and methods of administration thereof” (Amylin Pharmaceuticals, Inc., priority 1999, dated 2005).

The test has as its system Sprague-Dawley rats. Briefly: Insulinotropic action during an intravenous glucose challenge in rats. It counts as in vivo. Conditions: peptide 30 pmol/kg/min i.v.; n.s. versus saline.

As to GLP-1[7-36]NH2, the “increase of 60-min insulin AUC versus saline-treated rats” value worked out at 20%.
